Measurements as given in patent US10759766B2, “Certain chemical entities, compositions, and methods” (NeuPharma, Inc., priority 2011, dated 2020).

How the values were obtained:
A549 cells = experiment: Inhibition of cancer cell growth, MTT assay, A549; type: cell-based; details: Homo sapiens, A549, 72 h exposure
Outline: (§1)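 Cells grown in RPMI 1640 with 10% FBS were seeded at about 4000 cells/well, left 24 h, then exposed to compound for 72 h (1% DMSO final). MTT absorbance at 570 nm was compared with viable cells at time of addition to give growth inhibition; IC50 from concentration–inhibition plots, triplicates.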

BRAF V600E = BRAF V600E (Homo sapiens (Human), UniProt P15056, V600E); experiment: Z′-LYTE kinase inhibition assay (Invitrogen), BRAF V600E; type: biochemical; details: Z′-LYTE method; for inhibition at 1 µM: 1 μM compound, read-out: % inhibition at 1 μM against BRAF V600E; for IC50: read-out: IC50 against BRAF V600E
Outline: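 FRET-based Z′-LYTE peptide phosphorylation format in 50 mM HEPES pH 7.5, 0.01% BRIJ-35, 10 mM MgCl2, 1 mM EGTA with ATP. Kinase reaction 60 min at room temperature, then protease development step 60 min at room temperature before fluorescence read. IC50 from compound concentration versus percent inhibition.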

A375 cells = experiment: Inhibition of cancer cell growth, MTT assay, A375; type: cell-based; details: Homo sapiens, A-375, 72 h exposure
Outline: as §1

KDR (VEGFR2) = KDR (VEGFR2) (Homo sapiens (Human), UniProt P35968); experiment: Z′-LYTE kinase inhibition assay (Invitrogen), KDR; type: biochemical; details: Z′-LYTE method; for inhibition at 1 µM: 1 μM compound, read-out: % inhibition at 1 μM against KDR; for IC50: read-out: IC50 against KDR
Outline: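 Z′-LYTE FRET assay: 10 μL reactions with 0.5–11.7 ng KDR and 2 μM Tyr 01 peptide in 50 mM HEPES pH 7.5, 10 mM MgCl2, 1 mM EGTA, 0.01% BRIJ-35, 1 h at room temperature. Development Reagent B (1:256) added for 60 min, fluorescence read; IC50 from concentration–inhibition curves.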

BRAF = BRAF (Homo sapiens (Human), UniProt P15056); experiment: Z′-LYTE kinase inhibition assay (Invitrogen), BRAF; type: biochemical; details: 1 μM compound, Z′-LYTE method; read-out: % inhibition at 1 μM against BRAF
Description: Inhibitory activities Inhibitory activities of compounds against BRAF, and BRAF V600E were measured by Invitrogen using Z′-LYTE® Method as briefly described in the following. 4× Test compounds are dissolved in 1% DMSO. […] ATP solutions are diluted to a 4×ATP working concentration in Kinase Buffer (50 mM HEPES pH 7.5, 0.01% BRIJ-35, 10 mM MgCl2, 1 mM EGTA). Reaction started by 30-second shaking of mixture consisting of 2.5 μL 4× test compound, […] and 2.5 μL 4×ATP Solution on Bar-coded Corning, low volume NBS, black 384-well plate (Corning Cat. #3676). Then the mixture was incubated for 60-minute at room temperature for the kinase reaction, followed by addition of 5 μL of a 1:1024 dilution of development reagent A and 30-second plate shake. The mixture was then incubated for another 60-minute at room temperature for development reaction. Fluorescence was read by plate reader. IC50 was calculated by plotting the concentration of compound vs the percentage of inhibition in treated wells using GraphPad Prism 5.

KDR (VEGFR2), sequence (P35968 20-1356): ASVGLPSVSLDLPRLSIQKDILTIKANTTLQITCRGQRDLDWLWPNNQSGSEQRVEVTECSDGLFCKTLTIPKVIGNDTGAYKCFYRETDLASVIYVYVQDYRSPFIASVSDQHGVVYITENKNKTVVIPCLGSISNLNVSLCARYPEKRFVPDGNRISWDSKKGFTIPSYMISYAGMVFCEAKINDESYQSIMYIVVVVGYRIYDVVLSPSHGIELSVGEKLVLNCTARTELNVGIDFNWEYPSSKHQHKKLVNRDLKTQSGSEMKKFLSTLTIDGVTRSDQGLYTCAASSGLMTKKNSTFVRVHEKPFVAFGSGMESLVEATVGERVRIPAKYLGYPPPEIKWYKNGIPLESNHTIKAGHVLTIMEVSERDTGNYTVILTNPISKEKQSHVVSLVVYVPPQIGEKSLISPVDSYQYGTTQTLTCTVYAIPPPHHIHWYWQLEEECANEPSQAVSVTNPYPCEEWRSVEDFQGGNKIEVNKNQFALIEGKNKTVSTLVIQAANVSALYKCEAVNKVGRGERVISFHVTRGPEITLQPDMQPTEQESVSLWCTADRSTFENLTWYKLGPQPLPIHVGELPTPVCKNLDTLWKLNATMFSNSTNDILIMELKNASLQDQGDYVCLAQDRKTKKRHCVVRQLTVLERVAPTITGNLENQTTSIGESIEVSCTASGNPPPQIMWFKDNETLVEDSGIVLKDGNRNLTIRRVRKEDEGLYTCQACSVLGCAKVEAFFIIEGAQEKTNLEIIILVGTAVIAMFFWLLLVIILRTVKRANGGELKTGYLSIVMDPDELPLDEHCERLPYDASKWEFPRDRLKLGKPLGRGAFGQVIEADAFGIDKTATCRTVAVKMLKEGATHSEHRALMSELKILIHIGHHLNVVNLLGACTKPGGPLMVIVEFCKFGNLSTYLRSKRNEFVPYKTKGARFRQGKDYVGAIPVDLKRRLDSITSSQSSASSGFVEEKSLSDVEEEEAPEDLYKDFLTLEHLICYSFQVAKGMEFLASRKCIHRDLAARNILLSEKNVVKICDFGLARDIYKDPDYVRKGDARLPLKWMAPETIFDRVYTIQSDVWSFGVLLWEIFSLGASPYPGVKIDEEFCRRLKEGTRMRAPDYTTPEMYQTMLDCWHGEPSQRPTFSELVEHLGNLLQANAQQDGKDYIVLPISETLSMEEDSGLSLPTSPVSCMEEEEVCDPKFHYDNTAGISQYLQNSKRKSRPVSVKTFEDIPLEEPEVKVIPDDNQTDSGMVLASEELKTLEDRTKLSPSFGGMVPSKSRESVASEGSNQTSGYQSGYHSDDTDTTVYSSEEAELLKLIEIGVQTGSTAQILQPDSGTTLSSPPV
BRAF V600E, sequence (P15056 whole entry V600E): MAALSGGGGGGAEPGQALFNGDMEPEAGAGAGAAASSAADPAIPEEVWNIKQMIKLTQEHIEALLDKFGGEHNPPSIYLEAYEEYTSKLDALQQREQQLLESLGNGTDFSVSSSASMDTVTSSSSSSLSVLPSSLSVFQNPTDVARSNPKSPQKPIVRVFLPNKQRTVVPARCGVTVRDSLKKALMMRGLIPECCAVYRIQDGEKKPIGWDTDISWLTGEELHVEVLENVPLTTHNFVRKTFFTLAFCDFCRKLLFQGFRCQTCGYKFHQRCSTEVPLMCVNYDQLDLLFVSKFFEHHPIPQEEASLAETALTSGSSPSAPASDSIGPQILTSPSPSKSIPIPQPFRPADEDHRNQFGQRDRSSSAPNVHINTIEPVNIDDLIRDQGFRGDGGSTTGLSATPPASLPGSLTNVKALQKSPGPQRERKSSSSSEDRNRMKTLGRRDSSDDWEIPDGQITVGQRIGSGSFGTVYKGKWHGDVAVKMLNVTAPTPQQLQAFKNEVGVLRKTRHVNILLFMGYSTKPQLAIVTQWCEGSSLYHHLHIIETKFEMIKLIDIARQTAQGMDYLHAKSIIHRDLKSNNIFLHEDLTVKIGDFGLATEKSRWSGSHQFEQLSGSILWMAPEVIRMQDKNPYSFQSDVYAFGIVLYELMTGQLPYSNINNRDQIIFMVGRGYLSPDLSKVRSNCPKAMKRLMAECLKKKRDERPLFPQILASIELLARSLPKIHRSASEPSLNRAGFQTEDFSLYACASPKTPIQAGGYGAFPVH
BRAF, sequence (P15056 whole entry): as the sequence (P15056 whole entry V600E) above, with E600V counted along it

| SMILES | IC50 (A549 cells) | inhibition at 1 µM (BRAF V600E) | IC50 (BRAF V600E) | IC50 (A375 cells) | inhibition at 1 µM (KDR (VEGFR2)) | IC50 (KDR (VEGFR2)) | inhibition at 1 µM (BRAF) |
| --- | --- | --- | --- | --- | --- | --- | --- |
| O=C(Nc1cc(F)cc(C(=O)c2ccc3ncc(N4CCOCC4)nc3c2)c1)c1cccc(C(F)(F)F)c1 [Compound C143, N-(3-fluoro-5-(3-morpholinoquinoxaline-6-carbonyl)phenyl)-3-(trifluoromethyl)benzamide] | 2000 to 5000 nM | > 89% | < 100 nM | < 1000 nM | 70 to 89% | < 100 nM | < 70% |
| O=C(c1cccc(NC(=O)c2cc(C(F)(F)F)ccc2Cl)c1)c1ccc2nccnc2c1 [Compound C106, 2-chloro-N-(3-(quinoxaline-6-carbonyl)phenyl)-5-(trifluoromethyl)benzamide] | > 5000 nM | 70 to 89% |  | < 1000 nM | < 70% |  | < 70% |
| O=C(Nc1cccc(C(=O)c2ccc3ncc(-c4cccnc4)nc3c2)c1)Nc1ccc(Cl)c(C(F)(F)F)c1 [Compound C022, 1-(4-chloro-3-(trifluoromethyl)phenyl)-3-(3-(3-(pyridin-3-yl)quinoxaline-6-carbonyl)phenyl)urea] | > 5000 nM | > 89% | < 100 nM | 1000 to 5000 nM | > 89% | < 100 nM | 70 to 89% |
| O=C(Nc1cc(F)c(F)c(C(=O)c2ccc3ncc(N4CCOCC4)nc3c2)c1)c1cccc(F)c1 [Compound C144, N-(3,4-difluoro-5-(3-morpholinoquinoxaline-6-carbonyl)phenyl)-3-fluorobenzamide] | 2000 to 5000 nM | > 89% |  | 1000 to 5000 nM | 70 to 89% |  | 70 to 89% |
| O=C(Nc1cccc(C(=O)c2ccc3nccnc3c2)c1)c1ccc(C(F)(F)F)c(Cl)c1 [Compound C107, 3-chloro-N-(3-(quinoxaline-6-carbonyl)phenyl)-4-(trifluoromethyl)benzamide] | > 5000 nM | > 89% |  | 1000 to 5000 nM | < 70% |  | < 70% |
| O=C(Nc1cccc(C(=O)c2ccc3nccnc3c2)c1)c1ccc(Cl)c(C(F)(F)F)c1 [Compound C111, 4-chloro-N-(3-(quinoxaline-6-carbonyl)phenyl)-3-(trifluoromethyl)benzamide] | < 2000 nM | 70 to 89% |  | > 5000 nM | < 70% |  | < 70% |
| O=C(Nc1cc(F)cc(C(=O)c2ccc3nccnc3c2)c1)Nc1ccc(Cl)c(C(F)(F)F)c1 [Compound C026, 1-(4-chloro-3-(trifluoromethyl)phenyl)-3-(3-fluoro-5-(quinoxaline-6-carbonyl)phenyl)urea] | 2000 to 5000 nM | 70 to 89% |  | 1000 to 5000 nM | 70 to 89% |  | < 70% |
| O=C(Nc1cncc(Cl)c1)Nc1ccc(F)c(C(=O)c2ccc3ncc(N4CCOCC4)nc3c2)c1 [Compound C081, 1-(5-chloropyridin-3-yl)-3-(4-fluoro-3-(3-morpholinoquinoxaline-6-carbonyl)phenyl)urea] | > 5000 nM | > 89% |  | < 1000 nM | 70 to 89% |  | > 89% |
| O=C(Nc1cccc(C(=O)c2ccc3nccnc3c2)c1)Nc1cccc(C(F)(F)F)c1 [Compound C009, 1-(3-(quinoxaline-6-carbonyl)phenyl)-3-(3-(trifluoromethyl)phenyl)urea] | 2000 to 5000 nM | 70 to 89% | < 100 nM | > 5000 nM | > 89% | < 100 nM | 70 to 89% |
| O=C(Nc1cccc(C(=O)c2ccc3nccnc3c2)c1)Nc1cc(C(F)(F)F)ccc1Cl [Compound C002, 1-(2-chloro-5-(trifluoromethyl)phenyl)-3-(3-(quinoxaline-6-carbonyl)phenyl)urea] | < 2000 nM | > 89% |  | 1000 to 5000 nM | < 70% |  | 70 to 89% |
| O=C(Nc1cccc(F)c1)Nc1cccc(C(=O)c2ccc3nccnc3c2)c1 [Compound C001, 1-(3-fluorophenyl)-3-(3-(quinoxaline-6-carbonyl)phenyl)urea] | < 2000 nM | > 89% |  | 1000 to 5000 nM | < 70% |  | 70 to 89% |
| O=C(Nc1ccc(F)c(C(=O)c2ccc3nccnc3c2)c1Cl)c1ccc(Cl)c(C(F)(F)F)c1 [Compound C112, 4-chloro-N-(2-chloro-4-fluoro-3-(quinoxaline-6-carbonyl)phenyl)-3-(trifluoromethyl)benzamide] | > 5000 nM | < 70% |  | > 5000 nM | < 70% |  | < 70% |
| O=C(Nc1ccc(F)c(F)c1)Nc1ccc(F)c(C(=O)c2ccc3ncc(N4CCOCC4)nc3c2)c1 [Compound C046, 1-(3,4-difluorophenyl)-3-(4-fluoro-3-(3-morphlinoquinoxaline-6-carbonyl)phenyl)urea] | < 2000 nM | > 89% |  | < 1000 nM | > 89% |  | 70 to 89% |
| O=C(Nc1cncc(F)c1)Nc1ccc(F)c(C(=O)c2ccc3ncc(N4CCOCC4)nc3c2)c1 [Compound C079, 1-(4-fluoro-3-(3-morpholinoquinoxaline-6-carbonyl)phenyl)-3-(5-fluoropyridin-3-yl)urea] | > 5000 nM | > 89% |  | > 5000 nM | 70 to 89% |  | > 89% |
| O=C(Nc1ccc(F)c(C(=O)c2ccc3ncc(N4CCOCC4)nc3c2)c1)c1ccc(Cl)c(C(F)(F)F)c1 [Compound C134, 4-chloro-N-(4-fluoro-3-(3-morpholinoquinoxaline-6-carbonyl)phenyl)-3-(trifluoromethyl)benzamide] | 2000 to 5000 nM | 70 to 89% | > 100 nM | < 1000 nM | > 89% | < 100 nM | < 70% |
| O=C(Nc1ccc(F)c(C(=O)c2ccc3ncc(N4CCOCC4)nc3c2)c1)Nc1ccc(Cl)c(C(F)(F)F)c1 [Compound C030, 1-(4-chloro-3-(trifluoromethyl)phenyl)-3-(4-fluoro-3-(3-morpholinoquinoxaline-6-carbonyl)phenyl)urea] | 2000 to 5000 nM | 70 to 89% | > 100 nM | < 1000 nM | > 89% | < 100 nM | < 70% |
| O=C(Nc1ccc(F)c(C(=O)c2ccc3nccnc3c2)c1)c1cccc(C(F)(F)F)c1 [Compound C116, N-(4-fluoro-3-(quinoxaline-6-carbonyl)phenyl)-3-(trifluoromethyl)benzamide] | 2000 to 5000 nM | > 89% |  | < 1000 nM | > 89% |  | 70 to 89% |
| O=C(Nc1cccc(C(=O)c2ccc3ncc(-c4cn[nH]c4)nc3c2)c1)c1ccc(Cl)c(C(F)(F)F)c1 [Compound C133, N-(3-(3-(1H-pyrazol-4-yl)quinoxaline-6-carbonyl)phenyl)-4-chloro-3-(trifluoromethyl)benzamide] | 2000 to 5000 nM | 70 to 89% |  | < 1000 nM | > 89% |  | < 70% |
| O=C(Nc1cccc(C(=O)c2ccc3nccnc3c2)c1)Nc1ccc(Cl)c(C(F)(F)F)c1 [Compound C004, 1-(4-chloro-3-(trifluoromethyl)phenyl)-3-(3-(quinoxaline-6-carbonyl)phenyl)urea] | < 2000 nM | > 89% | < 100 nM | 1000 to 5000 nM | 70 to 89% | < 100 nM | 70 to 89% |
| O=C(Nc1cccc(C(=O)c2ccc3nccnc3c2)c1)c1cccc(F)c1 [Compound C105, 3-fluoro-N-(3-(quinoxaline-6-carbonyl)phenyl)benzamide] | < 2000 nM | 70 to 89% |  | 1000 to 5000 nM | < 70% |  | < 70% |
